Measurements as given in PMC6459484, “Synthetic surfactin analogues have improved anti-PEDV properties” (PLoS ONE, 2019).
In brackets after ≈: the same amount, converted by molar mass. Entries after “also recorded” stand apart in the source; their conditions may differ. Square brackets hold non-standard residues; d marks the D form. Peptide text beside a SMILES is read from it. * marks the point of attachment. X1 = CCCCCCCc1ccc(-c2ccc(C(=O)*)cc2)cc1; Palmitoyl = CCCCCCCCCCCCCCCC(=O)*

Experiments:
PEDV = assay: Time of addition assay (viral N protein by western blot, viral RNA by qRT-PCR); assay type: cell-based, Porcine epidemic diarrhea virus; details: Vero cells, 1000 PFU PEDV, harvested 12 hpi, SLP5 50 μg/ml, surfactin 20 μg/ml; for PEDV replication (nucleic acid and protein levels), reagent present throughout the experiment (treatment group 2) or at any stage: DEPE 5 μg/ml, 3 independent experiments
Method: Time of addition assay was performed according to the procedures described, with modifications. Confluent Vero cells in 12-well plates were infected with 1000 PFU of PEDV and incubated for 1 hr at 4 °C to synchronize infection. The inoculum was removed and 1 mL of 37 °C DMEM was added to each well, cells were then placed at 37 °C in a humidified incubator. At the indicated time points, SLP5, surfactin, or dielaidoyl-phosphatidylethanolamine (DEPE, AvantiPolarLipids, Alabaster, AL) was added dropwise to cells or virus to a final concentration of 50 μg/ml, 20 μg/ml, or 5 μg/ml and incubated a further 12 hours at 37 °C. Viral nucleic acid and protein levels in the cells were measured by qRT-PCR and western-blot respectively. The data shown is representative of 3 independent experiments.
Total RNA was extracted from cells using TRIzol Reagent (Invitrogen) according to the manufacturer’s instructions. cDNA was generated by reverse transcription using HiScript TM QRT SuperMix for qPCR (Vazyme) according to the manufacturer’s instructions. PEDV nucleic acid levels were assessed by measuring the viral nucleoprotein (N) using qRT-PCR with the TaKaRa SYBR Green qPCR Kit (TaKaRa). Primer sequences were as follows: PEDV-N-F (sense), 5’-[…]-3’; PEDV-N-R (antisense), 5’-[…]-3’; C-sabaeus-GAPDH-F, 5’-[…]-3’; C-sabaeus-GAPDH-R, 5’-[…]-3’. Gene level was calculated using the comparative Ct method and normalized to the endogenous levels of GAPDH.
Boiled cell lysates were subjected to SDS-PAGE then transferred to PVDF membrane (Roche, Basel, Switzerland) using a semi-dry transfer apparatus (GE, Little Chalfont, Buckinghamshire, UK). Membranes were blocked in 5% non-fat milk in TBS containing 0.01% Tween-20 (TBST) then incubated overnight at 4 °C with anti-PEDV N-protein monoclonal antibody (Median Diagnostics, South Korea) diluted in TBST with 1% BSA. Membranes were washed 30 min in TBST followed by incubation for 1 h at RT with 1:5000 HRP goat anti-mouse IgG antibody (ABGENT, San Diego, CA, USA) then thrice washed for 15 min in TBST. Membranes were incubated with ECL reagent (Thermo, Waltham, MA, USA) and imaged using a ChemiDoc™ system (Bio-Rad, Hercules, CA, USA).
Since SLP5 was the most promising surfactin analogue, we chose it for further study. Time of addition assays were performed to determine whether the SLP5 exerts its anti-PEDV effect at the same stage during infection as surfactin. Since surfactin acts directly on virions, the experiment was designed to examine events early in the infection process. Fig 6A summarizes the experimental plan and the eight treatments tested. Briefly, SLP5, surfactin, or DEPE was added to virus alone, cells alone, or to cells and virus together prior to infection, during virus adsorption, during virus invasion (1 h post infection at 37 °C), or during replication (1–12 hpi). Samples were harvested 12 hours after infection, and analyzed to measure cellular levels of viral protein (Fig 6B and 6C) and viral RNA (Fig 6D). […] Other antiviral mechanisms of SLP5 and surfactin cannot be ruled out since PEDV replication is inhibited to different degrees in some of the other treatment groups.
Fig 6 Time-of-addition experiments. (A) Vero cells were treated with SLP5, surfactin, or DEPE at different time points before, during, and after infection. […] (B) The PEDV nucleoprotein was detected by Western-blot, and (C) quantitated by band intensity relative to the internal control, GAPDH. (D) The PEDV genome was detected by qRT-PCR. […]

PEDV CV777 = assay: Plaque reduction assay (anti-PEDV activity); assay type: cell-based, Porcine epidemic diarrhea virus; details: for Antiviral potency relative to SLP3: anti-PEDV plaque reduction, compared with SLP3; for Anti-PEDV potency compared with surfactin: plaque reduction assay, result in words
Method: Cercopithecus aethiops kidney epithelial cells (Vero, ATCC, CCL-81) were cultured in high glucose DMEM (Gibco, US), supplemented with 10% fetal bovine serum (FBS, GIBCO), at 37 °C in a 5% CO2 humidified atmosphere. Cells were routinely seeded at a density of 2×10^5 /mL in plastic tissue culture flasks (25 cm^2 flasks, Corning, USA) and passaged every 3–4 days. PEDV CV777 was provided by the Jiangsu Academy of Agricultural Sciences (JAAS).
Vero cells were seeded at 2 × 10^5 cells/well in 24-well tissue culture plates and incubated 18–24 h at 37 °C until approximately 95% confluency was reached. 100 PFU of PEDV mixed with an equal volume of SLP in DMEM or DMEM alone were incubated 10 minutes at 37 °C, then added into the wells of the Vero cells and incubated 30 minutes at 4 °C. Cells were washed 3 times with DMEM then overlaid with DMEM/1% agar and incubated 72 hours at 37 °C. The cells were fixed with 4% formaldehyde, then stained with 0.1% crystal violet after the agar overlay was removed. The data are representative of 3 biological replicates and each plaque assay was performed in triplicate and values are expressed as means ± the standard deviation. Curve fitting and EC50 were calculated with GraphPad Prism 6 using the log[inhibitor] vs. response equation.
The SLPs were tested for anti-PEDV activity using a plaque reduction assay. Serial dilutions of SLPs were incubated with an equal volume of PEDV then aliquoted onto precooled cells in 12-well plates. After the virus has adsorbed to the cells at 4 °C, SLPs were washed away. The adsorbed virus particles were then counted by plaque forming assays (Fig 2A). The results were fitted to a sigmoid-curve and plotted Fig 2B. All SLPs have potent anti-PEDV effects above 50 μg/ml, but differences in their anti-PEDV effect.
Fig 2 Anti-PEDV activities of lipopeptides. (A) PEDV was incubated with series concentrations of SLPs for 10 minutes at 37 °C. After washing cells of unadsorbed virus, the remaining infectious particles was detected by plaque assay. (B) Anti-PEDV activity (% remaining PFU) plotted as a function of lipopeptide concentration. The results of three independent experiments are shown as means ± standard deviation. 100% represents plaque counts in the control (no lipopeptide) sample.

porcine RBCs = assay type: cell-based; details: for CC50 (50% cytotoxicity concentration, hemolysis): red cells of porcine, 1 h
Method: Hemolytic activity was measured according to the methods described in Jingdan, with some modifications. Briefly, serial dilutions of SLPs were added to 200 uL of a 1% suspension of porcine RBCs in PBS, followed by incubation for 1 h at 37 °C. Cells were centrifuged at 1000 g for 10 min, then 100 uL of each supernatant was transferred to wells of a 96-well plate. The optical density at 540 nm was measured using a microplate reader (Infinite 200 PRO, Tecan Group Ltd., Switzerland) and % hemolysis was calculated using the formula: Hemolysis(%)=ODS-ODB/ODP-ODB×100% where ODS, ODB, and ODP represent the optical density of the SLP-treated samples, negative control and positive control, respectively. 1% Triton X-100 was used for the positive control. Each sample was run in triplicate.
Fig 3 Hemolytic activity of lipopeptides. (A) The indicated concentration of SLPs were added to a 1% porcine RBC suspension in PBS, followed by incubation for 1 h at 37 °C and centrifugation. Pictures were taken after collecting a portion of the supernatant for quantification of hemolysis. (B) Hemolytic curve. Hemolysis (measured at OD540) is shown as a function of SLP concentration. 100% represents the OD obtained using 0.1% Triton X-100-treated red blood cells.

[1] = Critical micelle concentration by surface tension (ring method); assay type: physicochemical; details: samples stood 30 min at 22 °C, intersection of two linear regression lines
Method: Surface tensions were measured using the ring method. Samples were freshly prepared in a testing flask and allowed to stand for 30 minutes at 22 °C. Surface tension measurements were made using a surface tensiometer (HLD-LST-II, HENLIDA Co., Ltd, China). Linear regressions of the drop and the flat area were performed separately for the surface tension-concentration curve. The concentration at the intersection of the two lines is the critical micelle concentration (CMC).
The CMC was calculated by measuring the surface tension of each SLP over a range of concentrations. […] Linear regressions were performed independently using the data on the descending part of the curve below the CMC and the equilibrium part above the CMC. The intersection of the linear regression lines corresponds to the CMC (Table 3).
Fig 4 Critical micelle concentrations of the SLPs. CMCs were determined for SDS, surfactin, and SLPs by surface tension. The intersection of the two linear regression lines corresponds to the CMC value, (shown by the dotted lines).

[2] = 100 PFU PEDV pre-incubated with lipopeptide 10 min at 37 °C, adsorbed to Vero cells 30 min at 4 °C, washed, agar overlay 72 h, 3 biological replicates each in triplicate, mean ± SD, log[inhibitor] vs. response fit

Compound	PEDV replication (nucleic acid and protein levels), reagent present throughout the experiment (treatment group 2) or at any stage (PEDV)	EC50 (PEDV CV777; 72 h) [µg/mL]	Antiviral potency relative to SLP3 (PEDV CV777)	Anti-PEDV potency compared with surfactin (PEDV CV777)	CC50 (50% cytotoxicity concentration, hemolysis) (porcine RBCs) [µg/mL]	CMC [1] [µg/mL]	EC50 (PEDV CV777; [2]) [µg/mL]	Hemolytic activity, result in words (porcine RBCs)	PEDV replication, treatment group 5 (PEDV; same as group 2 (little replication))
CCCCCCCC/C=C/CCCCCCCC(=O)OC[C@H](COP(=O)(O)OCCN)OC(=O)CCCCCCC/C=C/CCCCCCCC [DEPE, dielaidoyl-phosphatidylethanolamine]	did not affect PEDV replication at any stage	–	–	–	–	–	–	–	–
CCCCCCCCCCCCCCCC(=O)N[C@@H](CCC(=O)O)C(=O)N[C@H](C(=O)N[C@H](CC(C)C)C(=O)N[C@H](CC(C)C)C(N)=O)C(C)C [SLP4] (Palmitoyl-EV[dL][dL]-NH2)	–	5.4 ± 0.4 (≈ 7.61 µM)	about 3 fold	higher potency than surfactin	12.9 ± 0.2 (≈ 18.2 µM)	10.6	–	–	–
CCCCCCCCCCCCCCCC(=O)N[C@@H](CCC(=O)O)C(=O)N[C@H](C(=O)N[C@@H](CC(C)C)C(=O)N[C@@H](CC(=O)O)C(=O)N[C@@H](CC(C)C)C(N)=O)C(C)C [SLP7] (Palmitoyl-EVLDL-NH2)	–	–	–	–	274.1 ± 21.0 (≈ 332 µM)	17.1	14.0 ± 0.6 (≈ 17 µM)	–	–
CCCCCCCCCCCCOS(=O)(=O)[O-].[Na+] [SDS, reference compound]	–	–	–	–	–	296	–	–	–
CCCCCCCCCCCCCCCC(=O)N[C@@H](CCC(=O)O)C(=O)N[C@H](C(=O)N[C@H](CC(C)C)C(=O)N[C@H](CC(C)C)C(=O)N[C@@H](CC(=O)O)C(N)=O)C(C)C [SLP8] (Palmitoyl-EV[dL][dL]D-NH2)	–	2.6 ± 0.2 (≈ 3.15 µM)	6.5 fold	higher potency than surfactin; also recorded: exceeded	217.5 ± 18.9 (≈ 264 µM)	20.2	–	low hemolytic activity	–
CCCCCCCCCCCCCCCC(=O)N[C@@H](CCC(=O)O)C(=O)N[C@@H](CC(=O)O)C(=O)N[C@H](C(=O)N[C@H](CC(C)C)C(=O)N[C@H](CC(C)C)C(N)=O)C(C)C [SLP9] (Palmitoyl-EDV[dL][dL]-NH2)	–	–	–	–	52.2 ± 2.0 (≈ 63.3 µM)	9.4	12.8 ± 0.5 (≈ 15.5 µM)	–	–
CCCCCCCCCCCCCCCC(=O)N[C@@H](CCCCN)C(=O)N[C@H](C(=O)N[C@H](CC(C)C)C(=O)N[C@@H](CCCCN)C(=O)N[C@H](CC(C)C)C(N)=O)C(C)C [SLP6] (Palmitoyl-KV[dL]K[dL]-NH2)	–	6.1 ± 0.3 (≈ 7.29 µM)	–	higher potency than surfactin	12.6 ± 0.4 (≈ 15 µM)	22.4	–	strongest hemolytic activity	–
CCCCCCCCCCCCCCCC(=O)N[C@@H](CCC(=O)O)C(=O)N[C@H](C(=O)N[C@H](CC(C)C)C(=O)N[C@@H](CC(=O)O)C(=O)N[C@H](CC(C)C)C(=O)O)C(C)C [SLP5] (Palmitoyl-EV[dL]D[dL]-OH)	little PEDV replication occurs	16.5 ± 0.6 (≈ 20 µM)	–	equaled	847.2 ± 124.9 (≈ 1030 µM)	15.0	–	–	act directly on the virus
CCCCCCCc1ccc(-c2ccc(C(=O)N[C@@H](CCC(=O)O)C(=O)N[C@H](C(=O)N[C@H](CC(C)C)C(=O)N[C@@H](CC(=O)O)C(=O)N[C@H](CC(C)C)C(N)=O)C(C)C)cc2)cc1 [SLP10] (X1-EV[dL]D[dL]-NH2)	–	–	–	–	82.8 ± 3.4 (≈ 95.7 µM)	–	10.6 ± 0.5 (≈ 12.3 µM)	–	–
